Measured values as given in patent US20210177847A1, “Compounds for treatment of diseases related to DUX4 expression” (Facio Intellectual Property B.V., priority 2017, published 2021).
Where two headings read alike, the source gives them in different places.

Key:
DUX4 = assay: High-content immunocytochemistry assay of endogenous DUX4 expression in differentiating primary FSHD myotubes; type: cell-based, human; settings: for EC50: Homo sapiens, Myotube, read-out: half maximal effective concentration (EC50), DUX4 repression
From the text: A quantitative assay readout was developed based on script-based image analysis. Cells were stained according to example 1, also using DAPI to detect myonuclei and an antibody against myosin heavy chain (MHC) to visualize the formation of myotubes. To analyse the images, an automated script was developed, enabling the detection of nuclei, myotube borders and DUX4 signals, with the script also detecting artefacts to reduce false positive signals. The script enabled multiple validated readouts including the number of DUX4 positive nuclei and nuclei clusters, the fusion index, myotube area, myotube width and myotube skeleton length (see FIG. 2). Additionally, the total nuclei count was included as a measure of cell loss or compound toxicity. The script was validated by evaluating endogenous DUX4 expression in the primary myotubes, and results were in line with literature values, with the number of DUX4 expressing nuclei being <0.5%.
A compound library containing approximately 5000 annotated compounds was screened in the high-content assay. For this purpose, primary myoblasts were seeded in 384 well plates after which the growth medium was replaced with differentiation medium. After 3 days of differentiation, cells were treated with library compounds (in duplicate on different screening plates) for 15 h, after which they were fixed and stained with antibodies against DUX4, antibodies against myosin heavy chain (MHC), and with DAPI (4′,6-diamidino-2-phenylindole). Script-based analysis provided readouts for DUX4 expression (count of DUX4-positive nuclei or DUX4 intensity) and for potential toxicity (fusion index and nuclei count). The majority of the approximately 200 hits was confirmed in an experiment using the same assay and 5 replicates. These compounds were selected for further concentration-response profiling.
The DUX4 repression of CK1 inhibitors was assayed following the protocol of Example 2, illustrated in FIG. 4A. […] Compounds were incubated with primary FSHD cells for 15 hours, as indicated by the arrow in FIG. 4A.

CK1α = CK1α (Homo sapiens, UniProt P48729); assay: CK1α inhibition IC50; type: biochemical; settings: Table 3; read-out: CK1 a IC50
Chain of CK1α (P48729 whole entry): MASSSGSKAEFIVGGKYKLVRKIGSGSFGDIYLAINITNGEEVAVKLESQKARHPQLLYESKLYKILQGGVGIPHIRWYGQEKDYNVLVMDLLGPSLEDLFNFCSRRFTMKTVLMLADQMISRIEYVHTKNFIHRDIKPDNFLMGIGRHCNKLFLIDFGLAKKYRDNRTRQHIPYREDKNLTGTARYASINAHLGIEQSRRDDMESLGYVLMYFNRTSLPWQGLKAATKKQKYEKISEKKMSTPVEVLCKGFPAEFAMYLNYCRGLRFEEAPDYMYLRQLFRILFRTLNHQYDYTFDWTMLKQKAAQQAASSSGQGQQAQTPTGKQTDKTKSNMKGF

p38α = p38α (Homo sapiens, UniProt Q16539); assay: p38α inhibition IC50; type: biochemical; settings: Table 3; read-out: p38a IC50
Chain of p38α (Q16539 whole entry): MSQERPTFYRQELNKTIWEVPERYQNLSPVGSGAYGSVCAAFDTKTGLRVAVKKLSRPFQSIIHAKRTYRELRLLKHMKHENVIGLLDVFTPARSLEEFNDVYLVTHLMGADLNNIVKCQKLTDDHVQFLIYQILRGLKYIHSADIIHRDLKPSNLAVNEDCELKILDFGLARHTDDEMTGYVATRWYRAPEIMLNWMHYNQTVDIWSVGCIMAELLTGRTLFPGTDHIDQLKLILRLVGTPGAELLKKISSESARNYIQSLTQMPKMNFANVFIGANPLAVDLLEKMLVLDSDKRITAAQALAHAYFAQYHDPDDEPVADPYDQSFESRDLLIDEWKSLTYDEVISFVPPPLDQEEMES

CK1ε = CK1ε (Homo sapiens, UniProt P49674); assay: CK1ε inhibition IC50; type: biochemical; settings: Table 3; read-out: CK1 e IC50
Chain of CK1ε (P49674 whole entry): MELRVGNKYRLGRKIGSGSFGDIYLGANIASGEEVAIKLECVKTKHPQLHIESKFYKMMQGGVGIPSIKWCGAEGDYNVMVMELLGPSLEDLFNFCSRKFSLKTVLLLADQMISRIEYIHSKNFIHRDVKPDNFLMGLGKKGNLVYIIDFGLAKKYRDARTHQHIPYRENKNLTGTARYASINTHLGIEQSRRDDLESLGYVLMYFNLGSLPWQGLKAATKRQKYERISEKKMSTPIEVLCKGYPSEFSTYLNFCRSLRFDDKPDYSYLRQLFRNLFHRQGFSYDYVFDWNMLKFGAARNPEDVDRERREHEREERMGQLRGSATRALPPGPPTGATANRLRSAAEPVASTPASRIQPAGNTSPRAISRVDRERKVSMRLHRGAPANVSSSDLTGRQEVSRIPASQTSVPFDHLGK

CK1δ = CK1δ (Homo sapiens, UniProt P48730); assay: CK1δ inhibition IC50; type: biochemical; settings: Table 3; read-out: CK1 d IC50
Chain of CK1δ (P48730 whole entry): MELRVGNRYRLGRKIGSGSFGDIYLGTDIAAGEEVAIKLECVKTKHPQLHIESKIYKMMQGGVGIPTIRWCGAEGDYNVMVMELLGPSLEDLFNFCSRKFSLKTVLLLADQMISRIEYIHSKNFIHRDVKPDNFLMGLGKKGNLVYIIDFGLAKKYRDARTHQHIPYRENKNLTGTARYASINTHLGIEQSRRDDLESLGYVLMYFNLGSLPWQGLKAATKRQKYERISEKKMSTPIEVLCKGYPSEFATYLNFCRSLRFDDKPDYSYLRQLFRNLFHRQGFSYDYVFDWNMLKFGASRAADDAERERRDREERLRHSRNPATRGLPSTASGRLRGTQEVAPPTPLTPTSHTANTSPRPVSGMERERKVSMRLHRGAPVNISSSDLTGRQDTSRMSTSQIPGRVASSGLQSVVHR

[1] = primary FSHD cells, compounds incubated 15 hours, Table 3

EC50 (DUX4; [1]) [nM]	Structure (SMILES)	IC50 (CK1α) [nM]	IC50 (p38α) [nM]	other results
40 to 50	CC1(C)CN(c2ccc3nc(-c4ccc(F)cc4)c(-c4ccncc4)n3n2)CCN1 [Compound A]			
2000	CN1CCN(c2ccc3nc(-c4ccc(F)cc4)c(-c4ccncc4)n3n2)CC1 [Compound B]			
1100 to 1400	CNc1nccc(-c2c(-c3ccc(F)cc3)ncn2C2CCN(Cc3ccon3)CC2)n1 [Compound C]			
	CN1Cc2nccc(-c3cn(C)nc3-c3ccc(F)cc3)c2C1=O [Compound E]			EC50 (DUX4; 15 h): 1900 to 3100 nM
1500 to 2600	Cn1cc(-c2ccnc3c2C(=O)N(C2CCOCC2)C3)c(-c2ccc(F)cc2)n1 [Compound F]			
1700 to 4500	COCCN1Cc2nccc(-c3cn(C)nc3-c3ccc(F)cc3)c2C1=O [Compound G]	2590	712	IC50 (CK1ε): 92.1 nM; IC50 (CK1δ): 41.8 nM
10 to 46	Fc1ccc(-c2nc3ccc(N4CCNCC4)nn3c2-c2ccncc2)cc1 [Compound H]	22	14.8	IC50 (CK1ε): 9.41 nM; IC50 (CK1δ): 16.5 nM
	CNCc1cc(-c2cn(C)nc2-c2ccc(F)cc2)ccn1 [Compound I]	1760	3070	IC50 (CK1ε): 89 nM; IC50 (CK1δ): 57.7 nM; EC50 (DUX4; 15 h): 3100 to 5500 nM
710	Fc1ccc(-c2nc(-c3c(F)cccc3F)[nH]c2-c2ccncc2)cc1 [Compound O]			
430	Nc1nccc(-c2c(-c3ccc(F)cc3)ncn2C2CCCCC2)n1 [PF-670462, reference compound]			
310	Nc1nccc(-c2c(-c3ccc(F)cc3)ncn2C2CCN(Cc3ccon3)CC2)n1 [PF-5006739, reference compound]			
	COc1cc(OC)c2c(=O)[nH]c(-c3cc(C)c(OCCO)c(C)c3)nc2c1 [RVX-208, reference compound]			effect on DUX4 expression (DUX4; irrespective of treatment time (15 h or 72 h), not shown): did not show any effect on DUX4 expression
	Fc1cccc(-n2cnc3c(NCc4nc5ccc(F)c(F)c5[nH]4)nc(N4CCOCC4)nc32)c1 [SR-3029, reference compound]	1000	1000	EC50 (DUX4; 15 h): 50 to 120 nM
